Patent US7070965B1, “Small molecule anticancer compounds and related production process” (priority 1998, dated 2006)

Legend:
[1] = system: normal human peripheral blood lymphocytes (PBL); assay: Cytotoxicity on normal cells, viability assessment; format: cell-based; settings: at concentrations lethal to tumor cells
Description: PBLs, K-562 and SNU-1 cells in suspension culture were seeded in 96-well microplates at a density of 5×10^4 cells/well for K-562 and SNU-1, and 1×10^5 cells/well for PBLs. iso-C15 were diluted with medium to provide different concentrations (0, 1.5, 3.0, 6.0, 15.0, 30.0, and 60.0 μg/ml). Both untreated and solvent (NaOH and Tween 80) treated cells served as controls. After incubation for 48 hours at 37° C., cells were collected directly from the wells for viability assessment.
The ID50, ID75 and ID90 were determined in duplicate in every set of experiments, and each experiment was repeated three times under identical conditions. ID50, ID75 and ID90 were defined as the concentration of iso-C15 required to kill 50, 75 or 90%, respectively, of cells (compared with that in untreated cells) and computed using CalcuSyn for Windows software (Biosoft, Cambridge UK) based on Median Effect method by Dr. T. C. Chou.

[2] = system: DMBA-induced mammary cancer; assay: Chemoprevention of DMBA-induced mammary carcinogenesis in rats; format: in vivo, Sprague-Dawley rats; settings: 0.5 ml of 0.7% solution intragastric, five times a week, twenty weeks after DMBA
Description: 13-methyltetradecanoic acid (iso-C15) was prepared by dissolving in NaOH solution and then in 0.35% Tween 80 with pH 7.5.
Fifty female Sprague-Dawley rats were maintained on laboratory chow. At 50 days of age, rats were given a single dose (5 mg) of DMBA (Sigma Chemical Co., St. Louis. Mo.) via an intragastric tube. Seven days after DMBA administration, the rats were randomly divided into two groups of 25. Each rat in the control group was given 0.5 ml of 0.35% Tween 80 five times a week via an intragastric tube throughout the experiment, while each in the test group was given 0.5 ml iso-C15 solution of concentration 0.7%, five times a week. Food and water were available ad libitum. Twenty weeks after DMBA administration, all rats were scarified, and all palpable tumors were removed.

K562 leukemia cell line = assay: DNA fragmentation gel electrophoresis; format: cell-based, human; settings: 60 μg/ml
Description: The gel electrophoresis assay was used for the detection of apoptosis-specific internucleosonal DNA degradation in these cells. […] After centrifuged at 14,000 RPM for 20 min at 4° C., the supernatants were transferred to new tubes and treated with RNase and proteinase K respectively. Supernatants were extracted with phenol/chloroform twice, and fragmented DNA was precipitated in ethanol. Samples were electrophoresed in a 1.5% agarose gel in 1× TAE buffer. The gel was stained with ethidium bromide and destained with distilled water. The fragmented DNA was then visualized under UV light.

DU145 cancer cells = assay: In situ cell death detection, POD; format: cell-based, human; settings: 60 μg/ml, 8 hours
Excerpt: In Situ Cell Death Detection Kit, POD (Mannheim Boehringer GmbH) was used to detect the individual apoptotic cells. Cleavage of genomic DNA during apoptosis may yield double-stranded, low molecular weight DNA fragments as well as single strand breaks in high molecular weight DNA. Those DNA strand breaks can be identified by labeling free 3′-OH termini with modified nucleotides in an enzymatic reaction. In this kit terminal deoxynucleotidyl transferase (TdT) is used to label free 3′-OH ends in genomic DNA with fluorescein-dUTP. The incorporated fluorescein is visualized under fluorescence microscope directly. The incorporated fluorescein can also bind to anti-fluorescein antibody POD and be detected by substrate reaction. Stained cells can be analyzed under light microscope.
H1688, K-562 and DU145 human cancer cells and normal human PBLs were added with POD and incubated 30 min at 37° C., washed three times with PBS, then reacted with substrate AEC and incubated for 10 min at room temperature. The cells were analyzed under light microscope. […] It is evidenced that iso-C15 induces apoptosis of cancer cells but not normal human cells.

[3] = system: human hepatocellular carcinoma LCI-D35; assay: Orthotopic nude mice model of human hepatocellular carcinoma LCI-D35; format: in vivo, athymic BALB/c nude mice
Description: 13-methyltetradecanoic acid (iso-C15) was chemically synthesized in the inventor's laboratory, as described in Example 5, infra, (purity of 99.8%), was prepared by dissolving in NaOH solution and then in 0.35% Tween 80 with pH7.5.
Total of 16 male and female athymic BALB/c nude mice between 4 and 5 weeks of age were bred and maintained in specific pathogen free condition.
Human hepatocellular carcinoma LCI-D35 was originally obtained from the primary tumor of a patient. The tumor was implanted and maintained subcutaneously in athymic nude mice. Prior to orthotopic implantation, the tumor was harvested in log phase. The peripheral tumor tissue was collected and minced to small pieces of one cubic millimeter each.
The mice were anesthetized for surgical orthotopic implantation. A small incision was made along the midline of the upper abdomen. The left lobe of the liver was exposed and a small incision was made on the liver surface. Two of the tumor fragments above were sutured into the incision using 8-0 suture. The abdomen was then closed using a 6-0 surgical suture.
The mice bearing orthotopic LCI-D35 were randomly divided into control and test groups of eight mice each at the second day after tumor implantation. The iso-C15 prepared above at dose 70 mg/kg and PBS were administered by gavage once a day in the test and control group, respectively, for 40 days.
All the mice were sacrificed by CO2 inhalation at day-40 after the start of treatment. The weights of primary tumors and bodies were measured. Tissue samples of the primary tumors were processed through standard procedures of hematoxylin and eosin staining for microscopic examination.
The tumor inhibition rates (TIR) were determined by comparing the mean tumor weight of the test groups (T) with that of the control group (C) and expressed as a (C)−T)/C percentage, and were analyzed by Student's test for statistical significance.

**Q.** Which “toxicity against normal human peripheral blood lymphocytes” value [1] does the source give for `CC(C)CCCCCCCCCCCC(=O)O` [iso-C15, 13-methyltetradecanoic acid] here?
**A.** Its value is “not toxic against normal human peripheral blood lymphocytes”.

**Q.** What about the “No. of rats with tumors” value ([2]; 25 rats) of the same compound?
**A.** The value was 3.

**Q.** And the Mean tumor weight [2]?
**A.** Its Mean tumor weight is 0.8 ± 1.3 g.

**Q.** And the No. of tumors [2]?
**A.** Its No. of tumors is 4.

**Q.** And the “No. of tumors per rat” value [2]?
**A.** Its value is 0.2 ± 0.1.

**Q.** And the “No. of tumors/tumor bearing rat” value [2]?
**A.** The value was 1.3 ± 0.5.

**Q.** And the tumor incidence [2]?
**A.** Its tumor incidence is 12%.

**Q.** What about the “apoptotic DNA fragmentation” value (K562 leukemia cell line) of the same compound?
**A.** Its value is “fragmented low molecular weight DNA bands were seen at 2 hour and were prominent at 8 hour treated”.

**Q.** And the “apoptotic cells stained, POD” value (DU145 cancer cells)?
**A.** The value was “Some stained apoptotic DU145 cancer cells were shown”.

**Q.** What about the “signs of toxicity (body weight curve, histology slides)” value ([3]; 70 mg/kg oral) of the same compound?
**A.** The value was “no signs of toxicity”.

**Q.** And the “TIR (tumor inhibition rate)” value ([3]; 70 mg/kg oral, 40 days)?
**A.** Its value is 64.9%.

**Q.** And the “tumor weight mean ± SD” value ([3]; 70 mg/kg oral, 40 days)?
**A.** Its value is 0.071 ± 0.052 g.

**Q.** What about the “mice in which the implanted tumor did not grow” value ([3]; 70 mg/kg, eight mice per group) of the same compound?
**A.** The value was “two”.
